ChEMBL document CHEMBL1143456, “Identification of a potent and selective 5-HT1B receptor antagonist” (Bioorg Med Chem Lett, 2005)

Key:
[1] = molecular target: Serotonin 1 receptors; 5-HT1B & 5-HT1D (Homo sapiens) (UniProt P28222+P28221); assay: Selectivity towards human 5-hydroxytryptamine 1B receptor to that of 5-hydroxytryptamine 1D receptor; type: protein assay
[2] = molecular target: T1, 5-hydroxytryptamine receptor 1D (Homo sapiens, UniProt P28221); assay: Binding affinity against cloned human 5-hydroxytryptamine 1D receptor
T1 sequence (P28221 whole entry): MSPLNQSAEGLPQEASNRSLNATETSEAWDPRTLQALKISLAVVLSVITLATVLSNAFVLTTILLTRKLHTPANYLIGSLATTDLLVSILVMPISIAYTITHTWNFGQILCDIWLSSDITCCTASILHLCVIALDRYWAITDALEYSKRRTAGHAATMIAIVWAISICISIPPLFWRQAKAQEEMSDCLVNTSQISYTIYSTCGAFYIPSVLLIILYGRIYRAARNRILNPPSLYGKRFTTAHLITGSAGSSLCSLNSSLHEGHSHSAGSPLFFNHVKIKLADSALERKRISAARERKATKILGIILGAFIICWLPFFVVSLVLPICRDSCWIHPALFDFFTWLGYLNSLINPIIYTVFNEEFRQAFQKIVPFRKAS

[3] = Intrinsic clearance from human liver microsomes; type: ADME, Microsome
Rattus norvegicus = organism: Rattus norvegicus; assay: Intrinsic clearance from rat liver microsomes; type: ADME, Microsome
[4] = molecular target: T2, 5-hydroxytryptamine receptor 1A (Homo sapiens, UniProt P08908); assay: Binding affinity against cloned human 5-hydroxytryptamine 1A receptor
T2 sequence (P08908 whole entry): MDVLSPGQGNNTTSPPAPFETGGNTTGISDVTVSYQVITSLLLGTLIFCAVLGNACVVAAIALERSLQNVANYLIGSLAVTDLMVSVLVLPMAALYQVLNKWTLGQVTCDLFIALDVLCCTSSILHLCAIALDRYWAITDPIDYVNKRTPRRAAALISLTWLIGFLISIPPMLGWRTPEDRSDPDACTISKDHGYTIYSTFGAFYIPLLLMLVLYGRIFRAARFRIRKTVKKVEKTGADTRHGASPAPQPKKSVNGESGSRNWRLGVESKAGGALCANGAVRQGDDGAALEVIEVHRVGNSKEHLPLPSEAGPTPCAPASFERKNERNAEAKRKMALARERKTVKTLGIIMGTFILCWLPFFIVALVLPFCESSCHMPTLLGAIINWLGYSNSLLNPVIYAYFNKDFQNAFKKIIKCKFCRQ

[5] = molecular target: T3, 5-hydroxytryptamine receptor 1B (Homo sapiens, UniProt P28222); assay: Binding affinity against cloned human 5-hydroxytryptamine 1B receptor
T3 sequence (P28222 whole entry): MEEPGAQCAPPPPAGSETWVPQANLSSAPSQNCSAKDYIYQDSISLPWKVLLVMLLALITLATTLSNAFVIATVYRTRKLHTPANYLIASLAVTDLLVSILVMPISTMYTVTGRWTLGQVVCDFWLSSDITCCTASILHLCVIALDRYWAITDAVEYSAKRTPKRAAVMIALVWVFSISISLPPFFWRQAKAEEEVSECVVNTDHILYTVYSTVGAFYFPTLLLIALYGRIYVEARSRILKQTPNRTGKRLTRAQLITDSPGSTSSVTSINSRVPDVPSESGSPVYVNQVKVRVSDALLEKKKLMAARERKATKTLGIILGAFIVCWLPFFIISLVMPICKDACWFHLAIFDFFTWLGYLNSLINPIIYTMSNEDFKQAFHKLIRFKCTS

[6] = molecular target: T3, 5-hydroxytryptamine receptor 1B; assay: Intrinsic activity for human 5-hydroxytryptamine 1B receptor
Homo sapiens = organism: Homo sapiens; assay: Selectivity towards human 5-hydroxytryptamine 1B receptor to that of 5-hydroxytryptamine 1A receptor
[7] = molecular target: T1, 5-hydroxytryptamine receptor 1D; assay: Intrinsic activity for human 5-hydroxytryptamine 1D receptor

SMILES | Selectivity [1] | Ki [2] | Intrinsic clearance [3] | Intrinsic clearance (Rattus norvegicus) | Ki [4] | Ki [5] | Intrinsic activity [6] | Selectivity (Homo sapiens) | Intrinsic activity [7]
COc1cc2c(cc1N1C[C@@H](C)N[C@@H](C)C1)N(C(=O)c1ccc(-c3ccc(C(C)=O)cc3C)cc1)CC2 | – | 398 nM | – | – | – | 3.16 nM | – | – | –
COc1cc2c(cc1N1C[C@@H](C)N[C@@H](C)C1)N(C(=O)c1ccc(-c3ccc(-c4ncccn4)cc3C)cc1)CC2 | – | 251 nM | – | – | – | 5.01 nM | – | – | –
COc1cc2c(cc1N1C[C@@H](C)N(C)[C@@H](C)C1)N(C(=O)Cc1cccc([N+](=O)[O-])c1)CC2 | 15 | 251 nM | – | – | 2000 nM | 15.8 nM | 0.1 | 125 | 0.2
CN1CCN(c2cc3c(cc2Cl)CCN3C(=O)Nc2ccc(-c3ccncc3)c3ccccc23)CC1 | 0.25 | 1 nM | – | – | 3.98 nM | 3.98 nM | – | 1 | –
COc1cc2c(cc1N1C[C@@H](C)N(C)[C@@H](C)C1)N(C(=O)Oc1cccc(C(F)(F)F)c1Cl)CC2 | – | 25.1 nM | – | – | – | 2.51 nM | 0.15 | – | –
COc1cc2c(cc1N1C[C@@H](C)N[C@@H](C)C1)N(C(=O)c1ccc(-c3cc(C)ncc3C)cc1)CC2 | – | 501 nM | – | – | – | 7.94 nM | 0 | – | –
COc1cc2c(cc1N1C[C@@H](C)N(C)[C@@H](C)C1)N(C(=O)c1cccc(Cl)c1)CC2 | – | 251 nM | – | – | – | 20 nM | – | – | –
COc1cc2c(cc1N1C[C@@H](C)N[C@@H](C)C1)N(C(=O)c1ccc(-c3ccc(N4CCCC4=O)nc3C)cc1)CC2 | – | 398 nM | – | – | – | 5.01 nM | 0 | – | –
COc1cc2c(cc1N1C[C@@H](C)N(C)[C@@H](C)C1)N(C(=O)Oc1cccc(C(F)(F)F)c1F)CC2 | – | 31.6 nM | – | – | – | 2.51 nM | 0.1 | – | –
COc1cc2c(cc1N1C[C@@H](C)N[C@@H](C)C1)N(C(=O)c1ccc(-c3ccc(-c4noc(C)n4)cc3C)cc1)CC2 | – | 251 nM | – | – | – | 3.16 nM | 0 | – | –
COc1cc2c(cc1N1C[C@@H](C)N(C)[C@@H](C)C1)N(C(=O)c1cccc(Cl)c1Cl)CC2 | – | 251 nM | – | – | – | 12.6 nM | – | – | –

Second part, the molecule after the results:

Selectivity [1] | Ki [2] | Intrinsic clearance [3] | Intrinsic clearance (Rattus norvegicus) | Ki [4] | Ki [5] | Intrinsic activity [6] | Selectivity (Homo sapiens) | Intrinsic activity [7] | SMILES
30 | 100 nM | 34 mL/min/g | 46 mL/min/g | 501 nM | 3.16 nM | 0.3 | 160 | – | COc1cc2c(cc1N1C[C@@H](C)N(C)[C@@H](C)C1)N(C(=O)c1ccc(-c3cccc(C)n3)c3ccccc13)CC2
– | 15.8 nM | – | – | – | 0.631 nM | 0 | – | – | COc1cc2c(cc1N1C[C@@H](C)N(C)[C@@H](C)C1)N(C(=O)c1ccc(-c3ccccc3C)cc1)CC2
– | 200 nM | – | – | – | 3.16 nM | 0.1 | – | – | COc1cc2c(cc1N1C[C@@H](C)N(C)[C@@H](C)C1)N(C(=O)Cc1cccc(F)c1C(F)(F)F)CC2
– | 50.1 nM | – | – | – | 2.51 nM | 0 | – | – | COc1cc2c(cc1N1C[C@@H](C)N(C)[C@@H](C)C1)N(C(=O)Nc1cccc(C(F)(F)F)c1Cl)CC2
– | 100 nM | – | – | – | 2 nM | 0.1 | – | – | COc1cc2c(cc1N1C[C@@H](C)N(C)[C@@H](C)C1)N(C(=O)Cc1cccc(Cl)c1F)CC2
– | 126 nM | – | – | – | 1.58 nM | 0.1 | – | – | COc1cc2c(cc1N1C[C@@H](C)N(C)[C@@H](C)C1)N(C(=O)Cc1cccc(C(F)(F)F)c1F)CC2
3 | 12.6 nM | – | – | 50.1 nM | 3.98 nM | 0.6 | 13 | 0.7 | COc1cc2c(cc1N1CCN(C)CC1)N(C(=O)Nc1cccc(Cl)c1Cl)CC2
10 | 79.4 nM | 3 mL/min/g | 3 mL/min/g | – | 7.94 nM | 0.1 | 200 | 0.1 | COc1cc2c(cc1N1C[C@@H](C)N(C)[C@@H](C)C1)N(C(=O)Nc1cccc(Cl)c1Cl)CC2
– | 200 nM | – | – | – | 7.94 nM | 0.1 | – | – | COc1cc2c(cc1N1C[C@@H](C)N(C)[C@@H](C)C1)N(C(=O)Nc1cccc(Cl)c1F)CC2
– | 15.8 nM | – | – | – | 5.01 nM | – | – | – | COc1cc2c(cc1N1C[C@@H](C)N(C)[C@@H](C)C1)N(C(=O)c1ccc(-c3ccc(-c4noc(C)n4)cc3C)cc1)CC2
4 | 31.6 nM | – | – | 158 nM | 7.94 nM | – | 20 | – | COc1cc2c(cc1N1CCN(C)CC1)N(C(=O)Cc1cccc([N+](=O)[O-])c1)CC2
4.7 | 158 nM | – | – | 79.4 nM | 31.6 nM | – | 2 | – | CCCN1[C@H](C)CN(c2cc3c(cc2OC)CCN3C(=O)c2ccc(-c3cccc(C)n3)c3ccccc23)C[C@@H]1C
12 | 25.1 nM | – | – | 12.6 nM | 2 nM | 0.9 | 6 | 0.9 | COc1cc2c(cc1N1CCN(C)CC1)N(C(=O)c1ccc(-c3cccc(C)n3)c3ccccc13)CC2
– | 158 nM | – | – | – | 3.98 nM | 0 | – | – | COc1cc2c(cc1N1C[C@@H](C)N(C)[C@@H](C)C1)N(C(=O)Nc1cccc(C(F)(F)F)c1F)CC2
2.8 | 126 nM | 14 mL/min/g | 12 mL/min/g | 1000 nM | 50.1 nM | – | 21 | – | COc1cc2c(cc1N1C[C@@H](C)N[C@@H](C)C1)N(C(=O)c1ccc(-c3cccc(C)n3)c3ccccc13)CC2
28 | 126 nM | 47 mL/min/g | 45 mL/min/g | 501 nM | 3.98 nM | – | 110 | – | CCN1[C@H](C)CN(c2cc3c(cc2OC)CCN3C(=O)c2ccc(-c3cccc(C)n3)c3ccccc23)C[C@@H]1C
